Target: Cj1427 (Campylobacter jejuni, UniProt Q0P8I7)
Test: stopped-flow NADH fluorescence, single turnover, global fit by simulation
Assay type: binding

Cj1427, sequence (Q0P8I7 whole entry): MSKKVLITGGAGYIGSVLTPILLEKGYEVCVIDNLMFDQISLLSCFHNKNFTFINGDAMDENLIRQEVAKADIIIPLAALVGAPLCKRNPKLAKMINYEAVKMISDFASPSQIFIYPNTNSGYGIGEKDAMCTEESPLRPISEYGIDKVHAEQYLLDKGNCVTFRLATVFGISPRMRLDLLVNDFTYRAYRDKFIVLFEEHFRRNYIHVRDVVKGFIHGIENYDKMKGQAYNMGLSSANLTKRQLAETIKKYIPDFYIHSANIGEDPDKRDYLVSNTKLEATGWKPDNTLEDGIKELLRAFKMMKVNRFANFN

O=C(O)CCC(=O)C(=O)O [α-ketoglutarate]
Kd: 165 µM

From PMC7500870 (Biochemistry, 2020)
